Results reported in US11319273B2, “Lipophilic curcumin analogs and methods of inhibiting HIV-1, treating latent HIV in the brain, and preventing HIV-mediated cognitive decline and HIV dementia” (Howard University, priority 2012, dated 2022).

Columns and labels:
AKT1 = assay: Effect on AKT1 mRNA level in CEM cells; type: cell-based; conditions: CEM cells (FIG. 4)
Description: (§1) Along with brain-derived neurotrophic factor (“BDNF”), protein kinase B (“AKT”), and mitogen-activated protein kinase 1 (“MAPK1”) (i.e., ERK1/2) genes are known to critically regulate cell survival and growth of neurons during development and the survival and function of adult neurons, as well as modulate synaptic transmission and plasticity. This example compares activities of natural curcumin and curcumin analog (1E,4E)-1,5-bis(4-hydroxy-3-methoxyphenyl)penta-1,4-dien-3-one on AKT, MAPK1 and […]. The analog was predicted to be more biologically soluble, absorbable, and more resistant to degradation than the natural curcumin. It has already been shown that natural curcumin increases the expression of BDNF in the hippocampus of rats. It was believed that, compared to natural curcumin, the analog would result in greater increase in the activities of these three neuroprotective genes as proof-of-principle of neuroprotection from latent HIV brain disease. The analysis was conducted on CEM cell lines, which are cells that are susceptible to HIV infection.

MAPK1 = assay: Effect on MAPK1 mRNA level in CEM cells; type: cell-based; conditions: CEM cells (FIG. 4)
Description: as §1

BDNF = assay: Effect on BDNF mRNA level in CEM cells; type: cell-based; conditions: CEM cells (FIG. 4)
Description: as §1

[1] = system: vesicular stomatitus virus glycoprotein (VSVG) pseudotyped HIV-1 pNL 4-3 virus expressing luciferase (VSVG-HIV-1 Luc)
[2] = system: vesicular stomatitus virus glycoprotein (VSVG) pseudotyped HIV-1 pNL 4-3 virus expressing luciferase (VSVG-HIV-1 Luc); assay: microbe, parasite or virus in culture; conditions: Human immunodeficiency virus 1, T-cell, 48 h, read-out: anti-HIV activity IC50
[3] = Lipophilicity (octanol-water partition coefficient); type: physicochemical
Description: As used herein, lipophilicity refers to the affinity of a compound for a lipophilic environment. By one approach, lipophilicity can be determined using an octanol-water partition coefficient (Kow), which represents the ratio of the solubility of a compound in octanol (a non-polar solvent) to its solubility in water (a polar solvent). The higher the Kow, the more non-polar the compound. Log Kow values are generally inversely related to aqueous solubility and directly proportional to molecular weight. For purposes herein, lipophilicity values range between 0 to 10 and a value of at least 2.5 indicates good lipophilicity. A log Kow value less than 0 is considered hydrophilic.

| SMILES | AKT1 mRNA level (AKT1) | MAPK1 mRNA level (MAPK1) | BDNF mRNA level (BDNF) | inhibition of HIV-1 virus in vitro [1] | therapeutic index (IC50:cytotoxicity ratio) as compared to curcumin [1] | IC50 [2] | lipophilicity [3] |
| --- | --- | --- | --- | --- | --- | --- | --- |
| COc1cc(/C=C/C(=O)CC(=O)/C=C/c2ccc(O)c(OC)c2)ccc1O [Natural curcumin, Curcumin] | slight increase | slight increase | decrease | – | – | – | – |
| COc1cc(/C=C/C(=O)/C=C/c2ccc(O)c(OC)c2)ccc1O [curcumin analog, (1E,4E)-1,5-bis(4-hydroxy-3-methoxyphenyl)penta-1,4-dien-3-one] | significantly increased | significantly increased | significantly increased | able to inhibit HIV at the nanomolar level | wider therapeutic index | 8 nM | very lipophilic |
